Test results as given in PubChem BioAssay (NCI).
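Abbreviation: GI50, concentration required for 50% inhibition of growth. TGI: concentration producing complete growth inhibition.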

Legend:
Experiment in all cases: NCI tumour cell line growth inhibition, 384-well format
MCF7 breast = test system: MCF7 breast
U251 glioblastoma = test system: U251 glioblastoma
T-47D breast = test system: T-47D breast
SK-OV-3 ovarian = test system: SK-OV-3 ovarian
MDA-MB-435 melanoma = test system: MDA-MB-435 melanoma
786-0 renal = test system: 786-0 renal
NCI-H23 lung = test system: NCI-H23 lung
NCI-H460 NSCLC = test system: NCI-H460 NSCLC
M14 melanoma = test system: M14 melanoma
MOLT-4 leukemia = test system: MOLT-4 leukemia
MDA-MB-468 breast = test system: MDA-MB-468 breast
NCI-H226 lung = test system: NCI-H226 lung
SW-620 colon = test system: SW-620 colon
HT29 colon = test system: HT29 colon
TK-10 renal = test system: TK-10 renal
MALME-3M melanoma = test system: MALME-3M melanoma
RPMI-8226 leukemia = test system: RPMI-8226 leukemia
SNB-75 CNS = test system: SNB-75 CNS
NCI-H322M lung = test system: NCI-H322M lung
HOP-92 NSCLC = test system: HOP-92 NSCLC
UACC-257 melanoma = test system: UACC-257 melanoma
CAKI-1 renal = test system: CAKI-1 renal
KM12 colon = test system: KM12 colon
A498 renal = test system: A498 renal
MDA-MB-231 breast = test system: MDA-MB-231 breast
DU-145 prostate = test system: DU-145 prostate
UACC-62 melanoma = test system: UACC-62 melanoma
SK-MEL-2 melanoma = test system: SK-MEL-2 melanoma

SMILES: CN(C)CCNC(=O)c1cccc2cc3ccccc3nc12
- GI50 (MCF7 breast): 1.12 µM
- TGI (MCF7 breast): 4.17 µM
- GI50 (U251 glioblastoma): 0.741 µM
- TGI (U251 glioblastoma): 2.68 µM
- GI50 (T-47D breast): 2.05 µM
- TGI (T-47D breast): 4.09 µM
- GI50 (SK-OV-3 ovarian): 1.2 µM
- TGI (SK-OV-3 ovarian): 3.29 µM
- GI50 (MDA-MB-435 melanoma): 1.64 µM
- TGI (MDA-MB-435 melanoma): 3.23 µM
- GI50 (786-0 renal): 1.07 µM
- TGI (786-0 renal): 3.04 µM
- GI50 (NCI-H23 lung): 1.26 µM
- TGI (NCI-H23 lung): 2.57 µM
- GI50 (NCI-H460 NSCLC): 0.375 µM
- TGI (NCI-H460 NSCLC): 1.25 µM
- GI50 (M14 melanoma): 1.14 µM
- TGI (M14 melanoma): 2.38 µM
- GI50 (MOLT-4 leukemia): 0.169 µM
- TGI (MOLT-4 leukemia): 0.31 µM
- GI50 (MDA-MB-468 breast): 0.411 µM
- TGI (MDA-MB-468 breast): 0.791 µM
- GI50 (NCI-H226 lung): 0.898 µM
- TGI (NCI-H226 lung): 2.44 µM
- GI50 (SW-620 colon): 0.718 µM
- TGI (SW-620 colon): 1.99 µM
- GI50 (HT29 colon): 0.996 µM
- TGI (HT29 colon): 2.21 µM
- GI50 (TK-10 renal): 1.25 µM
- TGI (TK-10 renal): 2.95 µM
- GI50 (MALME-3M melanoma): 0.932 µM
- TGI (MALME-3M melanoma): 2.11 µM
- GI50 (RPMI-8226 leukemia): 0.506 µM
- TGI (RPMI-8226 leukemia): 1.49 µM
- GI50 (SNB-75 CNS): 0.806 µM
- TGI (SNB-75 CNS): 2.13 µM
- GI50 (NCI-H322M lung): 1.74 µM
- TGI (NCI-H322M lung): 3.53 µM
- GI50 (HOP-92 NSCLC): 0.688 µM
- TGI (HOP-92 NSCLC): 2.15 µM
- GI50 (UACC-257 melanoma): 1.65 µM
- TGI (UACC-257 melanoma): 3.05 µM
- GI50 (CAKI-1 renal): 1.02 µM
- TGI (CAKI-1 renal): 2.49 µM
- GI50 (KM12 colon): 0.862 µM
- TGI (KM12 colon): 2.44 µM
- GI50 (A498 renal): 0.539 µM
- TGI (A498 renal): 2 µM
- GI50 (MDA-MB-231 breast): 0.958 µM
- TGI (MDA-MB-231 breast): 2.22 µM
- GI50 (DU-145 prostate): 1.52 µM
- TGI (DU-145 prostate): 3.12 µM
- GI50 (UACC-62 melanoma): 1 µM
- TGI (UACC-62 melanoma): 2.2 µM
- GI50 (SK-MEL-2 melanoma): 3.28 µM
- TGI (SK-MEL-2 melanoma): 4.78 µM
